From patent US8512681B2 (GUMLINK A/S, priority 2005, dated 2013) come the findings set out here.

This assay deals with plaque. To be noted: in chewing gum.

Each structure is given as a SMILES string.

Consider `CC(=O)[O-].CC(=O)[O-].[Zn+2]` [zinc acetate], for which the “effect on plaque in hard-to-reach places (in words)” value was “worked in the “hard-to-reach” places with high efficiency”.
